Patent US7629318B2, “Immunosuppressant compounds, methods and uses related thereto” (priority 2002, dated 2009)
Like-named read-outs stand apart in the source and are kept apart here. Numbered stars: 1 amine (or outer) side, 2 acyl side, 3 side chain; on linkers, the order of the positions; unused ones are H or OH. Square brackets hold non-standard residues; d marks the D form. Peptide text beside a SMILES is read from it. * marks the point of attachment. ξ: configuration not given here. Gly(1-amidinopiperidin-4-yl) = N=C(N)N1CCC([C@H](N)C(=O)O)CC1; X1 = CC(C)c1oc([C@H](CO)N[*:1])nc1C(=O)[*:2]; Pro(3R-Ph) = O=C(O)[C@H]1NCC[C@@H]1c1ccccc1; Met(O) = CS(=O)CC[C@H](N)C(=O)O; Tic = O=C(O)[C@@H]1Cc2ccccc2CN1; Cha = N[C@@H](CC1CCCCC1)C(=O)O; NHPhenethyl = c1ccc(CCN*)cc1; NMe(benzyl) = CN(Cc1ccccc1)*; ξDisc = O=C(O)C1NCc2ccccc21; Nle = CCCC[C@H](N)C(=O)O; NHBn = c1ccc(CN*)cc1; X3 = OCCOCCN*

Legend:
[1] = Stability of compounds in rat blood plasma; type: in vitro ADME
In short: (§1)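 Compounds at 5 μM final in rat, mouse or human plasma, incubated at 37 °C and sampled at 0, 6 and 24 h. Proteins precipitated with acetonitrile and the supernatant dried and reconstituted in 50% acetonitrile/0.1% TFA. PBS controls run for unstable compounds.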

[2] = biological target: DR4Dw4 (DRA1*0101 DRB1*0401) (Homo sapiens, UniProt P01903+P01911, A100K/A169T/F76Y/I96L/K127E/L162R/M171V/N62H/P40V/Q125Y/R42H/S133A/S149N/S66Y/V115G/V209L/W38E); experiment: Competitive binding to MHC-II protein DR4Dw4
In short: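 Each MHC-II allele incubated with compound 16 hours at room temperature in duplicate; controls lacked compound, or both compound and MHC-II. Complexes captured 2 h at 4 °C, bound biotinylated peptide detected via europium-streptavidin and DELFIA enhancement, time-resolved fluorescence read at ex 340/em 613 (615) nm.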

[3] = Stability of compounds in human blood plasma; type: in vitro ADME
In short: as §1

[4] = biological target: Cathepsin D (EC 3.4.23.5 from bovine spleen) (Bos taurus, UniProt P80209)
[5] = biological target: T1, Priess (DR4Dw4: DRA1*0101 DRB1*0401) cells (Homo sapiens, UniProt P01903+P01911, A100K/A169T/F76Y/I96L/K127E/L162R/M171V/N62H/P40V/Q125Y/R42H/S133A/S149N/S66Y/V115G/V209L/W38E); experiment: Competitive binding to MHC II proteins expressed on Priess cells; type: cell-based
T1 construct: MHC II Proteins Expressed on PRIESS and LG2 Cells; endogenous in cells; host or cells: Priess cells
Description: For use in the binding assay the cells were re-suspended in medium containing 1% FCS at a density of 2.5×10^6 cells/ml.
The assay was performed in sterile 96 well polystyrene microtiter plates. A 10 fold dilution series of compounds (16 nM-1615 μM) in 1% FCS was prepared from 5 or 10 mM compound stock solutions in 10% DMSO/water. 50 μl of each compound dilution were added in duplicates to 50 μl of a 16 μM solution of indicator peptide in 1% FCS. Cell binding was initiated by adding 100 μl of 2.5×10^6 cells/ml 1% FCS to each well. Controls were included containing the DMSO concentration present in the solution with the highest compound concentration. The cells were incubated at 37° C., 6% CO2. After 4 hours the cells were washed with 200 μl PBS and lysed in 200 μl lysis buffer (50 mM sodium phosphate, 150 mM sodium chloride, 1% (w/v) NP-40, 25 mM iodoacetamide, 1 mM PMSF, 3.1% protease inhibitor cocktail: 0.32 g/l of Chymostatin, Antipain, Pepstatin A, Soybean trypsin inhibitor and Leupeptin each, pH 7.5) for 10 min.
After washing with PBS, 190 μl of cell lysate were transferred to the appropriate wells of the capture plate and incubated for 2 h at 4° C. The wells were washed six times with 200 μl/well cooled (4 to 8° C.) of 1×DELFIA wash (Wallac-ADL-GmbH, Freiburg), incubated with 100 μl of cooled Europium-streptavidin conjugate (Wallac-ADL-GmbH, Freiburg; diluted 1/1000 with DELFIA assay buffer) for 30 minutes at 4° C., again washed six times with cooled 1×DELFIA wash and, finally, incubated with 200 μl cooled DELFIA enhancement solution (Wallac-ADL-GmbH, Freiburg) for one hour at room temperature before reading the time-resolved europium fluorescence at λex Eu^3+: 340 nm and λem Eu^3+: 613 (615) nm (Wallac Victor^2 1420 Multilabel Counter, Wallac-ADL-GmbH, Freiburg).

[6] = tested on: T-cell proliferation, DR14-LN; conditions: for Immunsupressive assays DR14-LN (Max) % Inhibition: maximal inhibition; for IC50: read-out: Immunsupressive assays DR14-LN (IC50)

SMILES | Stability (Arbitrary units) Rat 6 h [1] | Stability (Arbitrary units) Rat 24 h [1] | IC50 [2] | Stability (Arbitrary units) Human 6 h [3] | Stability (Arbitrary units) Human 24 h [3] | Stability (Arbitrary units) Cath D 4 h [4] | IC50 [5] | Immunsupressive assays DR14-LN (Max) % Inhibition [6] | IC50 [6] | stability (arbitrary units) in rat plasma ([1]; after 24 hours, compared to the Arg-containing equivalent) | IC50 ([2]; read-out: Protein binding IC50 (nM) 0401, 0401) | IC50 ([5]; read-out: Cell binding IC50 (uM) Priess (0401), Priess (0401))
CCCC[C@H](NC(=O)[C@@H]1Cc2ccccc2CN1C(=O)[C@@H](NC(=O)[C@H](CC1CCCCC1)NC(C)=O)C1CCN(C(=N)N)CC1)C(=O)NCc1ccccc1 [Compound P68, Ac-Cha-Gpg-Tic-Nle-N(H)Bn] (Ac-[Cha][Gly(1-amidinopiperidin-4-yl)][Tic][Nle]-NHBn) | 7 Arbitrary units | 0 Arbitrary units | 2100 nM | 85 Arbitrary units | 39 Arbitrary units | 105 Arbitrary units | 12 µM | 105% | 17 µM |  |  | 
CC(=O)N[C@@H](CC1CCCCC1)C(=O)N[C@H](C(=O)N1Cc2ccccc2C[C@H]1C(=O)N[C@@H](CC[S+](C)[O-])C(=O)N1CC[C@H](c2ccccc2)[C@H]1C(=O)N[C@@H](CO)c1nc(C(=O)N(C)C)c(C(C)C)o1)C1CCN(C(=N)N)CC1 (stereo partly drawn) [Compound P47, Ac-Cha-Gpg-Tic-Met(O)-βPhPro-[S(oxaz)L]-NMe2] (Ac-[Cha][Gly(1-amidinopiperidin-4-yl)][Tic][Met(O)][Pro(3R-Ph)][X1]-NMe2) | 116 Arbitrary units | 103 Arbitrary units | 180 nM | 126 Arbitrary units | 140 Arbitrary units | 99 Arbitrary units | 6.9 µM |  |  |  |  | 
CCCC[C@H](NC(=O)[C@@H]1Cc2ccccc2CN1C(=O)[C@@H](NC(=O)[C@H](CC1CCCCC1)NC(C)=O)C1CCN(C(=N)N)CC1)C(=O)N1CC[C@H](c2ccccc2)[C@H]1C(=O)N[C@@H](CO)c1nc(C(=O)N(C)C)c(C(C)C)o1 [Compound P53, Ac-Cha-Gpg-Tic-Nle-βPhPro-[S(oxaz)L]-NMe2] (Ac-[Cha][Gly(1-amidinopiperidin-4-yl)][Tic][Nle][Pro(3R-Ph)][X1]-NMe2) | 114 Arbitrary units | 108 Arbitrary units | 410 nM | 110 Arbitrary units | 122 Arbitrary units | 99 Arbitrary units | 3 µM | 101% | 32 µM |  |  | 
CCCC[C@H](NC(=O)C1c2ccccc2CN1C(=O)[C@H](CCCNC(=N)N)NC(=O)[C@H](CC1CCCCC1)NC(C)=O)C(=O)N(C)Cc1ccccc1 (stereo partly drawn) [Compound P72-1, Ac-Cha-Arg-Disc-Nle-N(Me)Bn] (Ac-[Cha]R[ξDisc][Nle]-{NMe(benzyl)}) | 80 Arbitrary units | 67 Arbitrary units | 5200 nM | 99 Arbitrary units | 99 Arbitrary units | 101 Arbitrary units | 7.5 µM | 95% | 29 µM |  |  | 
CCCC[C@H](NC(=O)[C@@H]1Cc2ccccc2CN1C(=O)[C@@H](NC(=O)[C@H](CC1CCCCC1)NC(C)=O)C1CCN(C(=N)N)CC1)C(=O)NCCc1ccccc1 [Compound P69, Ac-Cha-Gpg-Tic-Nle-N(H)CH2CH2Ph] (Ac-[Cha][Gly(1-amidinopiperidin-4-yl)][Tic][Nle]-NHPhenethyl) | 41 Arbitrary units | 42 Arbitrary units | 3600 nM | 105 Arbitrary units | 93 Arbitrary units | 100 Arbitrary units | 11 µM | 107% | 23 µM | improved stability |  | 
CSCC[C@H](NC(=O)C1c2ccccc2CN1C(=O)[C@@H](NC(=O)[C@H](CC1CCCCC1)NC(C)=O)C1CCN(C(=N)N)CC1)C(N)=O (stereo partly drawn) [Compound P66-1, Ac-Cha-Gpg-Disc-Met-NH2] (Ac-[Cha][Gly(1-amidinopiperidin-4-yl)][ξDisc]M-NH2) | 138 Arbitrary units | 81 Arbitrary units | 290 nM | 103 Arbitrary units | 87 Arbitrary units | 101 Arbitrary units | 7.8 µM |  |  |  |  | 
CSCC[C@H](NC(=O)[C@@H]1Cc2ccccc2CN1C(=O)[C@H](CCCNC(=N)N)NC(=O)[C@H](CC1CCCCC1)NC(C)=O)C(N)=O [Compound P1, Ac-Cha-Arg-Tic-Met-NH2] (Ac-[Cha]R[Tic]M-NH2) | 11 Arbitrary units | 0 Arbitrary units | 1600 nM | 94 Arbitrary units |  | 102 Arbitrary units | 11 µM |  |  |  |  | 
CCCC[C@H](NC(=O)C1c2ccccc2CN1C(=O)[C@@H](NC(=O)[C@H](CC1CCCCC1)NC(C)=O)C1CCN(C(=N)N)CC1)C(=O)N(C)Cc1ccccc1 (single isomer, unassigned) [Compound P76-1, Ac-Cha-Gpg-Disc-Nle-N(Me)Bn] | 80 Arbitrary units | 84 Arbitrary units |  | 93 Arbitrary units | 107 Arbitrary units | 104 Arbitrary units |  |  |  |  | 2300 nM | 9.8 µM
CSCC[C@H](NC(=O)C1c2ccccc2CN1C(=O)[C@H](CCCNC(=N)N)NC(=O)[C@H](CC1CCCCC1)NC(C)=O)C(N)=O (stereo partly drawn) [Compound P12-1, Ac-Cha-Arg-Disc-Met-NH2] (Ac-[Cha]R[ξDisc]M-NH2) | 67 Arbitrary units | 10 Arbitrary units | 370 nM | 75 Arbitrary units | 0 Arbitrary units | 103 Arbitrary units | 6.7 µM |  |  |  |  | 
CCCC[C@H](NC(=O)[C@@H]1Cc2ccccc2CN1C(=O)[C@@H](NC(=O)[C@H](CC1CCCCC1)NC(C)=O)C1CCN(C(=N)N)CC1)C(=O)NCCOCCO [Compound P70, Ac-Cha-Gpg-Tic-Nle-N(H)CH2CH2OCH2CH2OH] (Ac-[Cha][Gly(1-amidinopiperidin-4-yl)][Tic][Nle]-X3) | 83 Arbitrary units | 65 Arbitrary units | 440 nM | 116 Arbitrary units | 90 Arbitrary units | 112 Arbitrary units | 8.6 µM |  |  |  |  | 
CCCC[C@H](NC(=O)C1c2ccccc2CN1C(=O)[C@@H](NC(=O)[C@H](CC1CCCCC1)NC(C)=O)C1CCN(C(=N)N)CC1)C(=O)N(C)Cc1ccccc1 (single isomer, unassigned) [Compound P78-1] | 80 Arbitrary units | 84 Arbitrary units | 2300 nM | 93 Arbitrary units | 107 Arbitrary units | 104 Arbitrary units | 9.8 µM |  |  |  |  | 
